# Where “and” joins values, the source holds several entries; their conditions need not be identical. Equal values may be shown once. Read-outs that look alike come from different tables or passages of the source.
# Legend:
# [1] = Passive artificial membrane permeability (PAMPA); details: for PAMPA permeability: % permeability: 50 μM, 12–18 h, acceptor concentration relative to equilibrium; for Papp at 50 μM: pH 7.4; for Permeability% Average: average of R1-R3; for Permeability%: single replicates R1-R3
# human α-thrombin = human α-thrombin (Homo sapiens, UniProt P00734); assay: Protease inhibition, Ki for human α-thrombin (fluorogenic substrate Z-Gly-Gly-Arg-AMC); format: biochemical; details: for IC50 / Ki / Slope normalized to DMSO (proteolytic substrate cleavage over time): human alpha thrombin; for Human alpha thrombin inhibition, slope normalized to DMSO / Slope normalized to DMSO (proteolytic substrate cleavage over time): replicates R1-R3
# Procedure, shortened: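 Inhibition was measured as AMC fluorescence from 50 μM substrate, monitored for 30 min at 25 °C, relative to a peptide-free control. Human and rat enzymes were present at 2 nM and 3 nM final, respectively, in 50 mM Tris-HCl pH 7.4, 150 mM NaCl, 10 mM MgCl2, 1 mM CaCl2. Ki derives from fitted IC50 via Cheng–Prusoff.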
# [2] = top well sample vs theoretical equilibrium sample (TIC)
# [3] = average of R1-R3, read-out: Ki Average, human alpha thrombin inhibition
# [4] = single replicates R1-R3, read-out: IC50, human alpha thrombin inhibition
# [5] = single replicates R1-R3, read-out: Ki, human alpha thrombin inhibition
smiles,measurement,setting,value
CN1CCC(=O)NCCSCCS(=O)(=O)CCSC[C@H](NC(=O)c2ccc(Cl)s2)C(=O)N[C@@H](Cc2ccccc2)C1=O [compound 14],PAMPA permeability: % permeability,[1],1.27 ± 0.67%
same,Papp at 50 μM,[1]; PAMPA,0.776 nm/s
same,Permeability% Average,[1]; PAMPA,1.3%
same,Permeability% R1,"[1]; PAMPA, replicate R1, TIC of top well sample relative to sample at theoretical equilibrium",2.04%
same,Permeability% R3,"[1]; PAMPA, replicate R3, TIC of top well sample relative to sample at theoretical equilibrium",1.01%
same,IC50,"human α-thrombin; individual replicates R1-R3, read-out: IC50",1.24 µM and 0.961 µM and 0.88 µM
same,Ki,"human α-thrombin; individual replicates R1-R3, read-out: Ki",0.952 µM and 0.74 µM and 0.678 µM
same,Ki,"human α-thrombin; average of R1-R3, read-out: Ki Average",0.79 µM
same,"Human alpha thrombin inhibition, slope normalized to DMSO",human α-thrombin; peptide 1.02E-03 uM,99.6 and 102.5 and 100.4
same,"Human alpha thrombin inhibition, slope normalized to DMSO",human α-thrombin; peptide 1.04E+00 uM,62.7 and 63.2 and 64.7
same,"Human alpha thrombin inhibition, slope normalized to DMSO",human α-thrombin; peptide 1.27E-04 uM,101.4 and 100.0 and 103.5
same,"Human alpha thrombin inhibition, slope normalized to DMSO",human α-thrombin; peptide 1.30E-01 uM,93.3 and 94.2 and 91.8
same,"Human alpha thrombin inhibition, slope normalized to DMSO","human α-thrombin; peptide 1.33E+02 uM, slope of proteolytic substrate cleavage over time",35.6 and 42.1 and 48.0
same,"Human alpha thrombin inhibition, slope normalized to DMSO",human α-thrombin; peptide 1.63E-02 uM,100.3 and 97.9 and 93.0
same,"Human alpha thrombin inhibition, slope normalized to DMSO",human α-thrombin; peptide 1.67E+01 uM,19.0 and 23.6 and 27.7
same,"Human alpha thrombin inhibition, slope normalized to DMSO",human α-thrombin; peptide 2.03E-03 uM,98.3 and 97.0 and 102.8
same,"Human alpha thrombin inhibition, slope normalized to DMSO",human α-thrombin; peptide 2.08E+00 uM,53.1 and 49.4 and 51.7
same,"Human alpha thrombin inhibition, slope normalized to DMSO",human α-thrombin; peptide 2.54E-04 uM,100.9 and 99.7
same,"Human alpha thrombin inhibition, slope normalized to DMSO",human α-thrombin; peptide 2.60E-01 uM,86.0 and 78.5 and 87.5
same,"Human alpha thrombin inhibition, slope normalized to DMSO",human α-thrombin; peptide 3.18E-05 uM,105.6 and 95.1 and 100.8
same,"Human alpha thrombin inhibition, slope normalized to DMSO",human α-thrombin; peptide 3.26E-02 uM,99.1 and 97.3 and 99.5
same,"Human alpha thrombin inhibition, slope normalized to DMSO",human α-thrombin; peptide 3.33E+01 uM,14.9 and 14.8 and 17.4
same,"Human alpha thrombin inhibition, slope normalized to DMSO",human α-thrombin; peptide 4.07E-03 uM,104.1 and 99.4 and 102.2
same,"Human alpha thrombin inhibition, slope normalized to DMSO",human α-thrombin; peptide 4.17E+00 uM,44.0 and 45.0 and 45.3
same,"Human alpha thrombin inhibition, slope normalized to DMSO",human α-thrombin; peptide 5.09E-04 uM,89.0 and 97.2 and 100.9
same,"Human alpha thrombin inhibition, slope normalized to DMSO",human α-thrombin; peptide 5.21E-01 uM,80.8 and 75.1 and 78.9
same,"Human alpha thrombin inhibition, slope normalized to DMSO",human α-thrombin; peptide 6.36E-05 uM,99.9 and 99.1 and 102.2
same,"Human alpha thrombin inhibition, slope normalized to DMSO",human α-thrombin; peptide 6.51E-02 uM,97.0 and 92.8 and 96.0
same,"Human alpha thrombin inhibition, slope normalized to DMSO",human α-thrombin; peptide 6.67E+01 uM,27.9 and 32.4 and 47.7
same,"Human alpha thrombin inhibition, slope normalized to DMSO",human α-thrombin; peptide 8.14E-03 uM,99.8 and 97.9 and 99.0
same,"Human alpha thrombin inhibition, slope normalized to DMSO",human α-thrombin; peptide 8.33E+00 uM,29.9 and 28.6 and 29.1
O=C1C[C@H]2CCCN2C(=O)[C@H](Cc2ccccc2)NC(=O)[C@@H](NC(=O)c2ccc(Cl)s2)CSCc2cccc(n2)CSCCN1 [compound 31],PAMPA permeability: % permeability,[1],47 ± 3%
same,Papp at 50 μM,[1]; PAMPA,61.7 nm/s
same,Permeability% Average,[1]; [2],46.6%
same,Permeability%,[1]; [2],44.27% and 50.38% and 45.09%
same,Ki,human α-thrombin; [3],0.608 µM
same,Slope normalized to DMSO (proteolytic substrate cleavage over time),human α-thrombin; peptide 1.02E-03 uM,102.8 and 91.6 and 92.3
same,Slope normalized to DMSO (proteolytic substrate cleavage over time),human α-thrombin; peptide 1.04E+00 uM,41.6 and 46.5 and 44.1
same,Slope normalized to DMSO (proteolytic substrate cleavage over time),human α-thrombin; peptide 1.27E-04 uM,104.6 and 98.9 and 94.9
same,Slope normalized to DMSO (proteolytic substrate cleavage over time),human α-thrombin; peptide 1.30E-01 uM,89.0 and 82.0 and 80.6
same,Slope normalized to DMSO (proteolytic substrate cleavage over time),human α-thrombin; peptide 1.59E-05 uM,106.7 and 95.1 and 97.4
same,Slope normalized to DMSO (proteolytic substrate cleavage over time),human α-thrombin; peptide 1.63E-02 uM,99.4 and 97.2 and 88.2
same,Slope normalized to DMSO (proteolytic substrate cleavage over time),human α-thrombin; peptide 2.03E-03 uM,103.4 and 94.4 and 88.8
same,Slope normalized to DMSO (proteolytic substrate cleavage over time),human α-thrombin; peptide 2.08E+00 uM,29.1 and 35.9 and 29.9
same,Slope normalized to DMSO (proteolytic substrate cleavage over time),human α-thrombin; peptide 2.54E-04 uM,103.3 and 99.1 and 91.3
same,Slope normalized to DMSO (proteolytic substrate cleavage over time),human α-thrombin; peptide 2.60E-01 uM,77.6 and 74.7 and 72.2
same,Slope normalized to DMSO (proteolytic substrate cleavage over time),human α-thrombin; peptide 3.18E-05 uM,106.8 and 94.8 and 91.3
same,Slope normalized to DMSO (proteolytic substrate cleavage over time),human α-thrombin; peptide 3.26E-02 uM,96.6 and 90.1 and 84.7
same,Slope normalized to DMSO (proteolytic substrate cleavage over time),human α-thrombin; peptide 4.07E-03 uM,86.5 and 95.5 and 89.4
same,Slope normalized to DMSO (proteolytic substrate cleavage over time),human α-thrombin; peptide 4.17E+00 uM,17.9 and 25.7 and 18.3
same,Slope normalized to DMSO (proteolytic substrate cleavage over time),human α-thrombin; peptide 5.21E-01 uM,60.8 and 59.2 and 52.4
same,Slope normalized to DMSO (proteolytic substrate cleavage over time),human α-thrombin; peptide 6.36E-05 uM,98.6 and 95.0 and 94.0
same,Slope normalized to DMSO (proteolytic substrate cleavage over time),human α-thrombin; peptide 6.51E-02 uM,91.4 and 89.0 and 83.1
same,IC50,human α-thrombin; [4],0.7 µM and 0.85 µM and 0.816 µM
same,Ki,human α-thrombin; [5],0.54 µM and 0.655 µM and 0.629 µM
O=C1C[C@H]2CCCN2C(=O)[C@H](Cc2ccccc2)NC(=O)[C@@H](NC(=O)c2ccc(Cl)s2)CCSCc2cccc(n2)CSCCN1 [compound 33],PAMPA permeability: % permeability,[1],45 ± 10%
same,Papp at 50 μM,[1]; PAMPA,58.9 nm/s
same,Permeability% Average,[1]; [2],45.3%
same,Permeability%,[1]; [2],55.48% and 44.56% and 35.81%
same,Ki,human α-thrombin; [3],0.0966 µM
same,Slope normalized to DMSO (proteolytic substrate cleavage over time),human α-thrombin; peptide 1.02E-03 uM,103.0 and 105.2 and 102.2
same,Slope normalized to DMSO (proteolytic substrate cleavage over time),human α-thrombin; peptide 1.04E+00 uM,21.7 and 19.1 and 21.5
same,Slope normalized to DMSO (proteolytic substrate cleavage over time),human α-thrombin; peptide 1.27E-04 uM,106.0 and 98.8 and 103.2
same,Slope normalized to DMSO (proteolytic substrate cleavage over time),human α-thrombin; peptide 1.30E-01 uM,57.8 and 50.1 and 54.9
same,Slope normalized to DMSO (proteolytic substrate cleavage over time),human α-thrombin; peptide 1.59E-05 uM,109.2 and 97.6 and 100.1
same,Slope normalized to DMSO (proteolytic substrate cleavage over time),human α-thrombin; peptide 1.63E-02 uM,89.4 and 85.3 and 86.8
same,Slope normalized to DMSO (proteolytic substrate cleavage over time),human α-thrombin; peptide 1.67E+01 uM,7.7 and 6.1 and 7.5
same,Slope normalized to DMSO (proteolytic substrate cleavage over time),human α-thrombin; peptide 2.03E-03 uM,102.9 and 97.6 and 97.7
same,Slope normalized to DMSO (proteolytic substrate cleavage over time),human α-thrombin; peptide 2.08E+00 uM,19.7 and 13.9 and 8.6
same,Slope normalized to DMSO (proteolytic substrate cleavage over time),human α-thrombin; peptide 2.54E-04 uM,113.7 and 102.5 and 100.7
same,Slope normalized to DMSO (proteolytic substrate cleavage over time),human α-thrombin; peptide 2.60E-01 uM,43.1 and 35.0 and 39.7
same,Slope normalized to DMSO (proteolytic substrate cleavage over time),human α-thrombin; peptide 3.18E-05 uM,105.3 and 102.8 and 93.4
same,Slope normalized to DMSO (proteolytic substrate cleavage over time),human α-thrombin; peptide 3.26E-02 uM,88.2 and 77.6 and 78.4
same,Slope normalized to DMSO (proteolytic substrate cleavage over time),human α-thrombin; peptide 3.33E+01 uM,6.8 and 6.6
same,Slope normalized to DMSO (proteolytic substrate cleavage over time),human α-thrombin; peptide 4.07E-03 uM,95.5 and 99.8 and 99.7
same,Slope normalized to DMSO (proteolytic substrate cleavage over time),human α-thrombin; peptide 4.17E+00 uM,12.3 and 14.8 and 9.6
same,Slope normalized to DMSO (proteolytic substrate cleavage over time),human α-thrombin; peptide 5.09E-04 uM,101.7 and 102.5 and 100.0
same,Slope normalized to DMSO (proteolytic substrate cleavage over time),human α-thrombin; peptide 5.21E-01 uM,26.3 and 24.6 and 23.6
same,Slope normalized to DMSO (proteolytic substrate cleavage over time),human α-thrombin; peptide 6.36E-05 uM,99.2 and 97.4 and 102.8
same,Slope normalized to DMSO (proteolytic substrate cleavage over time),human α-thrombin; peptide 6.51E-02 uM,70.8 and 64.0 and 70.3
same,Slope normalized to DMSO (proteolytic substrate cleavage over time),human α-thrombin; peptide 6.67E+01 uM,6.9 and 8.6 and 6.6
same,Slope normalized to DMSO (proteolytic substrate cleavage over time),human α-thrombin; peptide 7.95E-06 uM,102.4 and 98.2 and 102.1
same,Slope normalized to DMSO (proteolytic substrate cleavage over time),human α-thrombin; peptide 8.14E-03 uM,92.1 and 87.0 and 91.2
same,Slope normalized to DMSO (proteolytic substrate cleavage over time),human α-thrombin; peptide 8.33E+00 uM,12.3 and 13.7 and 5.0
same,IC50,human α-thrombin; [4],0.139 µM and 0.101 µM and 0.135 µM
same,Ki,human α-thrombin; [5],0.108 µM and 0.078 µM and 0.104 µM

# Source: publication PMC11062899, “De novo development of small cyclic peptides that are orally bioavailable” (Nature Chemical Biology, 2023)
